Laboratory results from US4372953A, “Tetrazole derivatives, and anti-ulcer composition containing the same” (Otsuka Pharmaceutical Company, Limited, priority 1980, dated 1983).
Read-outs that look alike come from different tables or passages of the source.

What was measured:
[1] = test system: indomethacin-induced ulcer; experiment: Indomethacin-induced ulcer; type: in vivo, male Wistar rats; conditions: Rattus norvegicus, 5 h, oral, 30 minutes before indomethacin 20 mg/kg s.c., read-out: Inhibitory ratio of indomethacin-induced ulcer
Protocol: After male Wistar rats weighing about 160 g was fasted for 24 hours, indomethacin was subcutaneously administered to the rats in a dose of 20 mg/kg in the form of a suspension in a mixture of 0.5% CMC and a small amount of Tween 80 (i.e. polyoxyethylene sorbitan monooleate). After 5 hours, the rats were killed and the stomach was isolated. Into the isolated stomach 10% formalin (8 ml) was poured and settled. The stomach was cut open at the greater curvature, and the length of each ulcer on the membrane was measured, based on which results the inhibitory ratio of the indomethacin-induced ulcer of the test compounds was calculated in the same manner as in Pharmacological Test 2. The test compound was orally administered to the rats in a dose of 100 mg/kg in the form of 0.5% CMC suspension 30 minutes before the administration of indomethacin.
(§1) In the table, the inhibitory ratio (%) was evaluated as follows: […]

gastric juice secretion = experiment: Shay rat pylorus ligation method (gastric juice secretion-inhibiting activity); type: in vivo, male Wistar rats; conditions: 4 hours after ligation; for inhibition in vivo at 100 mg/kg / inhibition in vivo at 200 mg/kg: Rattus norvegicus, 4 h; for inhibition in vivo at 200 mg/kg: sc, subcutaneous route
Protocol: The pharmacological activities of the compounds (1) were tested by a Shay rat pylorus ligation method (cf. H. Shay et al: Gastroenterol., Vol. 5, page 43, 1945) which is the most popular method for testing of gastric juice secretion-inhibiting activity. The test was carried out by using male Wistar rats, weighing about 170 g and fasting for 24 hours.
Test compounds were administered 30 minutes before the pylorus ligation in a dose of 100 mg/kg in subcutaneous route in case of test compounds 37, 38, 50, 51 and 52, in a dose of 200 mg/kg in subcutaneous route in case of test compounds 105 and 106 and in dose of 100 mg/kg in duodenal route in case of other test compounds, and the volume, total acidity and pepsin activity of the gastric juice were measured 4 hours after the ligation. As a control, a saline solution was administered instead of the test compound. The inhibitory ratio (%) of the test compounds were calculated when the inhibitory activities of the control were counted as zero (0).
as §1

stress ulcer = experiment: Stress ulcer (restraint and water immersion); type: in vivo, male Wistar rats; conditions: Rattus norvegicus, po, 7 h, read-out: Inhibitory ratio of stress ulcer; for inhibition in vivo at 300 mg/kg: 0.5% CMC suspension; for inhibition in vivo: concentration of 1×10^-3 mole
Protocol: After male Wistar rats weighing about 170 g was fasted for 24 hours, the rats were restrained in a stress cage and dipped in water bath at 23° C. till chest of the animals. After 7 hours, the rats were killed and the stomach was isolated. Into the isolated stomach 10% formalin (8 ml) was poured and settled. The stomach was cut open at the greater curvature, and the length of each ulcer on the membrane was measured. Sum of the length of all ulcers was shown as ulcer index (UI). The test compound was orally administered to the rats before restraint in a stress cage in a dose of 300 mg/kg in the form of 0.5% CMC suspension in case of test compounds 3, 4, 6, 15 and 27 and in a concentration of 1×10^-3 mole in case of other test compounds. As a control, only the solvent (CMC solution) was administered likewise. The inhibitory ratio (%) of stress ulcer of the test compounds was calculated by the following equation: [formula]
as §1

[2] = Acute toxicity (LD50, p.o.); conditions: rat, in vivo; oral, male Wistar rats
Protocol: The test compounds were orally administered to male Wistar rats, and the half lethal dose (LD50) was measured.

[3] = 100 mg/kg, duodenal route, star-marked compounds, read-out: Inhibitory ratio, total acidity
[4] = 100 mg/kg, duodenal route, star-marked compounds, read-out: Inhibitory ratio, volume of gastric juice
[5] = 100 mg/kg, duodenal route, star-marked compounds, read-out: Inhibitory ratio, pepsin activity
[6] = 100 mg/kg, duodenal route, read-out: Inhibitory ratio, volume of gastric juice
[7] = 100 mg/kg, duodenal route, read-out: Inhibitory ratio, pepsin activity
[8] = 100 mg/kg, duodenal route, read-out: Inhibitory ratio, total acidity
[9] = read-out: Inhibitory ratio, pepsin activity
[10] = read-out: Inhibitory ratio, total acidity
[11] = read-out: Inhibitory ratio, volume of gastric juice

| SMILES | inhibition in vivo at 100 mg/kg [1] [%] | inhibition in vivo (stress ulcer) [%] | LD50 [2] [mg/kg] | inhibition in vivo at 100 mg/kg (gastric juice secretion; [6]) [%] | other results |
| --- | --- | --- | --- | --- | --- |
| Cn1nnnc1SCCCSC1CCCCC1 [Test compound 3, 1-Methyl-5-(3-cyclohexylthiopropyl)thio-1,2,3,4-tetrazole] | 30 to 60 | – | – | – | inhibition in vivo at 100 mg/kg (gastric juice secretion; [3]): > 60%; inhibition in vivo at 100 mg/kg (gastric juice secretion; [4]): > 60%; inhibition in vivo at 300 mg/kg (stress ulcer): > 60% |
| Cn1nnnc1SCCCCCSc1nnnn1C [Test compound 5, 1-Methyl-5-[5-(1-methyl-1,2,3,4-tetrazol-5-yl)thiopentyl]thio-1,2,3,4-tetrazole] | > 60 | > 60 | – | – | inhibition in vivo at 100 mg/kg (gastric juice secretion; [5]): 30 to 60%; inhibition in vivo at 100 mg/kg (gastric juice secretion; [3]): > 60%; inhibition in vivo at 100 mg/kg (gastric juice secretion; [4]): > 60% |
| CCSCCCSc1nnnn1C [Test compound 7, 1-Methyl-5-(3-ethylthiopropyl)thio-1,2,3,4-tetrazole] | – | > 60 | > 500 | > 50 | – |
| CC(CSc1nnnn1C)CSc1nnnn1C [Test compound 9, 1-Methyl-5-[2-methyl-3-(1-methyl-1,2,3,4-tetrazol-5-yl)thiopropyl]thio-1,2,3,4-tetrazole] | > 60 | – | – | – | – |
| Cn1nnnc1SCCCCCCSc1nnnn1C [Test compound 36, 1-Methyl-5-[6-(1-methyl-1,2,3,4-tetrazol-5-yl)thiohexyl]thio-1,2,3,4-tetrazole] | – | > 60 | – | – | Inhibitory ratio, volume of gastric juice (gastric juice secretion; 100 mg/kg, duodenal route): + + |
| Cn1nnnc1SCCC[S+]([O-])c1ccccn1 (stereo not drawn) [Test compound 44, 3-(1-Methyl-1,2,3,4-tetrazol-5-yl)thiopropyl 2-pyridyl sulfoxide] | – | > 60 | > 500 | > 50 | – |
| Cn1nnnc1SCCCC[S+]([O-])c1nnnn1C (stereo not drawn) [Test compound 46, 4-(1-Methyl-1,2,3,4-tetrazol-5-yl)thiobutyl 1-methyl-1,2,3,4-tetrazol-5-yl sulfoxide] | – | > 60 | – | 10 to 50 | – |
| Cn1nnnc1SCCCC(=O)c1ccccc1 [Test compound 53, 1-Methyl-5-(3-benzoylpropyl)thio-1,2,3,4-tetrazole] | > 60 | – | – | – | – |
| Cn1nnnc1SCCCC(=O)c1ccco1 [Test compound 55, 1-Methyl-5-[3-(2-furoyl)propyl]thio-1,2,3,4-tetrazole] | – | 30 to 60 | – | > 50 | inhibition in vivo at 100 mg/kg (gastric juice secretion; [7]): 10 to 50%; inhibition in vivo at 100 mg/kg (gastric juice secretion; [8]): > 50% |
| Cn1nnnc1SCCCC(=O)Cc1ccccc1 [Test compound 57, 1-Methyl-5-(3-benzylcarbonylpropyl)thio-1,2,3,4-tetrazole] | – | > 60 | – | > 50 | inhibition in vivo at 100 mg/kg (gastric juice secretion; [7]): 10 to 50%; inhibition in vivo at 100 mg/kg (gastric juice secretion; [8]): 10 to 50% |
| CC(=O)CSc1nnnn1C [Test compound 67] | > 60 | – | > 500 | – | – |
| Cn1nnnc1SCCCC(=O)c1ccccn1 [Test compound 74, 1-Methyl-5-[3-(2-pyridyl)carbonylpropyl]thio-1,2,3,4-tetrazole] | – | > 60 | – | > 50 | – |
| Cc1ncsc1C(=O)CCCSc1nnnn1C [Test compound 80, 1-Methyl-5-[3-(4-methyl-5-thiazolyl)carbonylpropyl]thio-1,2,3,4-tetrazole] | – | > 60 | – | > 50 | – |
| CCN(CC)CCCSc1nnnn1C [Test compound 84, 1-Methyl-5-[3-(N,N-diethylamino)propyl]thio-1,2,3,4-tetrazole] | > 60 | > 60 | – | 10 to 50 | inhibition in vivo at 100 mg/kg (gastric juice secretion; [7]): 10 to 50%; inhibition in vivo at 100 mg/kg (gastric juice secretion; [8]): 10 to 50% |
| Cn1nnnc1SCCCNC(=O)c1ccccc1 [Test compound 88, 1-Methyl-5-(3-benzoylaminopropyl)thio-1,2,3,4-tetrazole] | – | > 60 | – | > 50 | – |
| CCN(CC)C(=O)CCCn1nnnc1C [Test compound 105, N,N-Diethyl-4-(5-methyl-1,2,3,4-tetrazol-1-yl)butyramide] | 30 to 60 | > 60 | > 500 | – | inhibition in vivo at 200 mg/kg (gastric juice secretion; [9]): 10 to 50%; inhibition in vivo at 200 mg/kg (gastric juice secretion; [10]): 10 to 50%; inhibition in vivo at 200 mg/kg (gastric juice secretion; [11]): 10 to 50% |
| CCN(C(=O)CCCn1nnnc1C)C1CCCCC1 [Test compound 106, N-Ethyl-N-cyclohexyl-4-(5-methyl-1,2,3,4-tetrazol-1-yl)butyramide] | 30 to 60 | – | > 500 | – | inhibition in vivo at 200 mg/kg (gastric juice secretion; [9]): 10 to 50%; inhibition in vivo at 200 mg/kg (gastric juice secretion; [10]): 10 to 50%; inhibition in vivo at 200 mg/kg (gastric juice secretion; [11]): 10 to 50% |
| Cn1nnnc1SCCCSc1ccccn1 [compound 2] | – | > 60 | – | – | inhibition in vivo at 100 mg/kg (gastric juice secretion; [5]): 30 to 60%; inhibition in vivo at 100 mg/kg (gastric juice secretion; [3]): > 60%; inhibition in vivo at 100 mg/kg (gastric juice secretion; [4]): > 60% |
| Cc1nnc(SCCCSc2nnnn2C)o1 [compound 4] | > 60 | – | > 500 | – | inhibition in vivo at 100 mg/kg (gastric juice secretion; [5]): 30 to 60%; inhibition in vivo at 100 mg/kg (gastric juice secretion; [3]): > 60%; inhibition in vivo at 100 mg/kg (gastric juice secretion; [4]): > 60%; inhibition in vivo at 300 mg/kg (stress ulcer): > 60% |
